Patent publication US11440880B2, “Thalidomide analogs and methods of use” (The USA, as represented by the Secretary, Department of …, priority 2015, dated 2022)

Assays:
[1] = tested on: mpo:GFP zebrafish embryos (neutrophil migration to the wound site); assay: mpo:GFP zebrafish fin-clip neutrophil migration (inflammation) assay; assay type: in vivo; set-up: mpo:GFP inflammation n (survived/tested): concentration or dose not given beside the values; conditions: for minimal effective concentration: Danio rerio, Neutrophil, lowest concentration producing an effect, compounds not producing an effect shown at the highest evaluated concentration; for mpo:GFP inflammation n (survived/tested): embryos survived/tested at the concentration given
Source text: (§1) Zebrafish embryology: The use of zebrafish embryo (Danio rerio) bioassays as a preclinical model in the classification of novel compounds has increased in recent years due to several factors including; low cost, ease of maintenance, speed of embryonic development, transparency of the embryos and genetic conservation between zebrafish and humans (Howe et al., Nature 2013; 496:498; Therapontos et al., PNAS 2009, 106:8573; Mahony et al., PNAS 2013, 110:12703; Beedie et al., Oncotarget 2016, 7(22):33237; Beedie et al., Mol. Cancer Ther. 2015, 14(10):2228). Two established zebrafish reporter lines were used—the fli1:EGFP line, where the fli1 promoter drives expression of enhanced green fluorescent protein within the developing vasculature (Lawson et al., 2002), and the Tg(mpo::EGFP) line (also known as mpo:GFP), which expresses green fluorescent protein via the neutrophil specific myeloperoxidase promoter (Renshaw et al., Blood 2006, 108:3976). The use of these zebrafish transgenic reporter lines allows for the identification of potential anti-angiogenic and anti-inflammatory compounds respectively, and both have been used previously to successfully classify the action of thalidomide analogs (Therapontos et al., 2009; Mahony et al., 2013; Beedie et al., Oncotarget 2016, 7(22):33237; Beedie et al., Mol. Cancer Ther. 2015, 14(10):2228). Zebrafish embryos were treated with analogs as previously described (Mahony et al., 2013). Briefly, fli1:EGFP embryos were collected and embryos were allowed to develop for 24 hours. Embryos were dechorionated manually and exposed to test compounds or vehicle control for a further 24 hours, imaged and analyzed for intersegmental vessel (ISV) growth. At 24 hours post fertilisation (hpf) the ISVs were ideal to study to visualize and analyze the actions of compounds on angiogenesis. At this time point ISVs were rapidly forming beneath the developing head, over the body and had yet to form in the tail (Lawson and Weinstein, Developmental Biology 2002, 248:307; Therapontos and Vargesson, Developmental Dynamics 2010, 239:2761). Additionally, these sprouts would go on to form the bilateral dorsal longitudinal anastomotic vessels. By treating before this fusion and formation occurs, the effect of each compound on the individual vessels as well as overall patterning structural integrity (Isogai et al., Development 2003, 130:5281) could be determined. Tg(mpo::EGFP) were tail fin clipped as previously detailed (Renshaw et al., 2006; Mahony et al., 2013; Beedie et al., Oncotarget 2016, 7(22):33237; Beedie et al., Mol. Cancer Ther. 2015, 14(10):2228) and incubated with test compounds or vehicle control at 72 hours post fertilization. Fish were imaged at 24 hours and the number of migratory neutrophils present at the wound site were counted. Compounds inducing an at least 50% reduction of neutrophils to the wound site were considered to have anti-inflammatory properties in this system. All larvae were assessed for viability and morphological integrity.
To assess the immunomodulatory effects of the thalidomide analogs, the mpo:gfp transgenic zebrafish line (Renshaw et al., Blood 2006, 108:3976-3978) was utilized because it is an accepted model of inflammation, and can be used to test the effect of anti-inflammatory agents. These embryos express GFP-tagged myeloperoxidase, where green fluorescence marks the neutrophil cells involved in the inflammatory response process, for example following injury, from 72 hours post fertilization (Renshaw et al., 2006; Mahony et al., 2013; Beedie et al., Oncotarget 2016, 7(22):33237). At 72 hpf the dorsal third of the tail fin was removed and the embryos were immersed in the desired compound or vehicle (FIGS. 5A-5C). The embryos were examined for the effect on the inflammatory response quantified as an induction and migration of neutrophils to the wound site 24 hours later.

RAW 264.7 cells = assay: Cell viability (CellTiter 96 AQueous One) of LPS-challenged RAW 264.7 cells; assay type: cell-based, mouse; set-up: key: NS=not significant; a “+” sign=anti-inflammatory or increased cell numbers; a “−” sign=cell toxicity or pro-inflammatory
In short: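 RAW 264.7 murine macrophages pretreated 1 h with compound or DMSO vehicle, then challenged with LPS (serotype 055:B5) at 30 or 60 ng/mL final for 24 h. After media replacement, viability measured by tetrazolium (MTS) conversion, absorbance at 490 nm, reported as O.D.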

[2] = tested on: nitrite levels in the culture media; assay: Nitrite level (Griess Reagent System) in LPS-challenged RAW 264.7 cells; assay type: cell-based, mouse; set-up: key: NS=not significant; a “+” sign=anti-inflammatory or increased cell numbers; a “−” sign=cell toxicity or pro-inflammatory; conditions: LPS 30 or 60 ng/mL, 24 h
Protocol: Nitrite levels in the culture media were measured by use of the Griess Reagent System (Promega, Madison, Wis.), following the manufacturer's protocol. The O.D. of unknown samples was read at 520 nm λ, compared to a sodium nitrite standard curve (1.5 μM to 100 μM) and nitrite measured media concentrations expressed as μM units. As the lowest nitrite concentration on the Griess Reagent System standard curve was 1.5 μM, this was chosen as the effective cutoff for defining measurable nitrite concentrations. TNF-α protein levels were measured by use of an ELISA specific for mouse TNF-α protein (BioLegend, San Diego, Calif.) and are expressed as a % change from their appropriate control or as pg/ml.
RAW 264.7 cells obtained from ATCC (Manassas, Va., USA) were grown in DMEM media supplemented with 10% FCS, penicillin 100 μg/ml and streptomycin 100 μg/ml, and maintained at 37° C. and 5% CO2. Cells were seeded in 24 well plates and, 24 hours later, were utilized in studies. One hour prior to the initiation of any study, the seeding media was replaced with fresh media (1 mL), and the cells were allowed to equilibrate at 37° C. and 5% CO2.
RAW 264.7 cells were challenged with LPS (Sigma, St Louis, Mo.: serotype 055:B5) from at a final concentration of 30 or 60 ng/mL. This concentration of LPS in RAW 264.7 cells induces a sub-maximal rise in both TNF-alpha and nitrite levels without a loss in cellular viability. This sub-maximal rise is useful for assessing whether the addition of an experimental drug can either lower or further raise levels of TNF-α and nitrite. Twenty four hours following the addition of LPS, conditioned media was harvested and analyzed for quantification of secreted TNF-α protein and nitrite levels. Fresh media was replaced into the wells and cell viability was then assessed.
Thalidomide and analogs were prepared in tissue culture grade DMSO (Sigma). RAW 264.7 cells were pretreated with thalidomide, analogues or vehicle one hour prior to a challenge with LPS. The effects of various concentrations of thalidomide analogues were assessed. All compounds were synthesized to a chemical purity of >99.5%, as assessed by chemical characterization by a combination of 1H NMR, 13C NMR and GC/MS analyses (Bruker AC-300 spectrometer, together with elemental analyses (Atlantic Microlab, Inc., Norcross, Ga.).

TNF-α protein = TNF-α protein level (ELISA) in LPS-challenged RAW 264.7 cells; assay type: cell-based, mouse; set-up: key: NS=not significant; a “+” sign=anti-inflammatory or increased cell numbers; a “−” sign=cell toxicity or pro-inflammatory; conditions: LPS 30 or 60 ng/mL, 24 h
In short: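 RAW 264.7 cells pretreated 1 h with compound in DMSO vehicle, then challenged with LPS (30 or 60 ng/mL) for 24 h at 37° C. Conditioned-media nitrite by Griess (520 nm, sodium nitrite standard curve, 1.5 μM cutoff) in μM; mouse TNF-α by ELISA as pg/ml or % change from control.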

[3] = tested on: fli1:EGFP zebrafish embryos (intersegmental vessel growth); assay: fli1:EGFP zebrafish embryo angiogenesis assay; assay type: in vivo; set-up: fli1:EGFP angiogenesis n (survived/tested): concentration or dose not given beside the values; conditions: for minimal effective concentration: Danio rerio, lowest concentration producing an effect, compounds not producing an effect shown at the highest evaluated concentration; for fli1:EGFP angiogenesis n (survived/tested): embryos alive after 24 hours of exposure
Source text: as §1
To determine if the thalidomide analogs had any effect on angiogenesis, fli1:EGFP embryos (Lawson and Weinstein, Developmental Biology 2002, 248:307-318) were exposed to either vehicle or a compound of interest, over a range of concentrations and over a range of time points starting at 24 hpf. Images were obtained at three time points over 24 hours after exposure to the compounds. The best concentration and time point were selected. CPS49, a compound that is chemically and structurally similar to thalidomide breakdown products, and is tetrafluorinated (which adds stability and bioactivity to the compound) and that causes severe limb defects in chicken embryos, was used as a positive control. The embryos were imaged at 48 hpf (FIGS. 3A3L) and analyzed for both vessel formation and the extent of growth of the vasculature. […]

O=C1c2cccc([N+](=O)[O-])c2C(=O)N1C1CCC(=S)NC1=S (stereo not shown) [Compound 9, 2-(2,6-Dithioxo-3-piperidinyl)-4-nitro-1H-isoindole-1,3(2H)-dione]
minimal effective concentration [1]: 10 µg/mL | mpo:GFP inflammation n (survived/tested) [1]: 12/12 | Viability (RAW 264.7 cells; 30 μM): NS | Viability (RAW 264.7 cells; 60 μM): NS | Viability (RAW 264.7 cells; 100 μM): + | Nitrite ([2]; 30 μM): + | Nitrite ([2]; 60 μM): + | Nitrite ([2]; 100 μM): + | TNF-α (TNF-α protein; 30 μM): NS | TNF-α (TNF-α protein; 60 μM): NS | TNF-α (TNF-α protein; 100 μM): NS | minimal effective concentration [3]: 10 µg/mL | fli1:EGFP angiogenesis n (survived/tested) [3]: 14/21

O=C1CCC(N2Cc3ccccc3C2=O)C(=O)N1CSC(=S)NC1CCCCC1 (stereo not shown) [Compound 52]
minimal effective concentration [1]: 100 µg/mL | mpo:GFP inflammation n (survived/tested) [1]: 7/21 | Viability (RAW 264.7 cells; 1 μM): NS | Viability (RAW 264.7 cells; 10 μM): NS | Viability (RAW 264.7 cells; 30 μM): NS | TNF-α (TNF-α protein; 1 μM): + | TNF-α (TNF-α protein; 10 μM): + | TNF-α (TNF-α protein; 30 μM): + | minimal effective concentration [3]: 100 µg/mL | fli1:EGFP angiogenesis n (survived/tested) [3]: 6/7

O=C1CCC(N2Cc3ccccc3C2=O)C(=O)N1CSC(=S)N1CCCCC1 (stereo not shown) [Compound 53]
minimal effective concentration [1]: 10 µg/mL | mpo:GFP inflammation n (survived/tested) [1]: 13/19 | Viability (RAW 264.7 cells; 1 μM): − | Viability (RAW 264.7 cells; 10 μM): NS | Viability (RAW 264.7 cells; 30 μM): + | TNF-α (TNF-α protein; 1 μM): + | TNF-α (TNF-α protein; 10 μM): + | TNF-α (TNF-α protein; 30 μM): NS | minimal effective concentration [3]: 10 µg/mL | fli1:EGFP angiogenesis n (survived/tested) [3]: 9/14

O=C1CCC(N2C(=O)c3cccnc3C2=O)C(=O)N1 (stereo not shown) [Compound 57]
minimal effective concentration [1]: 17 µg/mL | mpo:GFP inflammation n (survived/tested) [1]: 8/15 | Viability (RAW 264.7 cells; 1 μM): NS | Viability (RAW 264.7 cells; 10 μM): NS | Viability (RAW 264.7 cells; 30 μM): NS | Nitrite ([2]; 1 μM): NS | Nitrite ([2]; 10 μM): + | Nitrite ([2]; 30 μM): + | TNF-α (TNF-α protein; 1 μM): NS | TNF-α (TNF-α protein; 10 μM): NS | TNF-α (TNF-α protein; 30 μM): NS | minimal effective concentration [3]: 8.5 µg/mL | fli1:EGFP angiogenesis n (survived/tested) [3]: 8/12
